Values of other authors, collected in patent publication US7645792B2, “Prodrugs of propofol, compositions and uses thereof” (XenoPort, Inc., priority 2004, dated 2010).

Settings: rats, oral dosing

## CC(C)c1cccc(C(C)C)c1O [propofol, 2,6-diisopropylphenol]
  Administered drug undergoing first pass metabolism: approximately 90%
